Experimental findings from ChEMBL document CHEMBL1141429, “Ecdysteroids from the Antarctic tunicate Synoicum adareanum” (J Nat Prod, 2007) are described below.

The structures appear in SMILES notation.

For series [1], the system named is HCT-116. As to the kind of experiment: Cytotoxicity against human HCT116 cells after 3 days by disk diffusion assay. The class given is functional, cell-based. The conditions noted are these: for IC50: HCT-116, 72 h.
The nature of series [2]: Cytotoxicity against human CFU-GM cells after 3 days by disk diffusion assay. It counts as cell-based. The conditions noted are these: 72 h.
Series [3] relates to H125M. As to the kind of experiment: Cytotoxicity against human H125M cells after 3 days by disk diffusion assay. It counts as functional, cell-based.
In series [4] the test system is CCRF-CEM. As to the kind of experiment: Cytotoxicity against human CCRF-CEM cells after 3 days by disk diffusion assay. It counts as functional, cell-based.
In series [5] the test system is L1210. As to the kind of experiment: Cytotoxicity against […] cells after 3 days by disk diffusion assay. It counts as functional, cell-based.

For the molecule `C[C@H](CCCC(C)(C)O)[C@H]1CC[C@@]2(O)C3=CC(=O)C4=C[C@H](O)[C@H](O)C[C@]4(C)[C@H]3CC[C@]12C` [HYOUSTERONE A], in series [1], the midpoint of inhibition, the IC50, lay at 10.7 µM.

Consider `C[C@H](CCCC(C)(C)O)[C@H]1CC[C@@]2(O)C3=CC(=O)C4=C[C@H](O)[C@H](O)C[C@]4(C)[C@@]3(O)CC[C@]12C` [HYOUSTERONE C], for which the IC50 in series [1] was 3.7 µM.

`C[C@H](CCC(C)(C)O)[C@H]1CCC(=O)[C@]23CC(=O)C4=C[C@H](O)[C@H](O)C[C@]4(C)[C@H]2CC[C@]13C` [ABEOHYOUSTERONE]: in series [1], the IC50 worked out at 3 µM.

Turning to `C[C@H](CCCC(C)(C)O)[C@H]1CC[C@H]2C3=CC(=O)C4=C[C@H](O)[C@H](O)C[C@]4(C)[C@H]3CC[C@]12C` [DIAULUSTEROL B], the Activity entry in series [1] was “Not toxic”; in series [2], “Non-toxic”; in series [3], “Not toxic”; in series [4] it was “Not toxic”; in series [5] it was “Not toxic”.

Turning to `C[C@H](CCCC(C)(C)O)[C@H]1CC[C@]2(O)C3=CC(=O)C4=C[C@H](O)[C@H](O)C[C@]4(C)[C@@]3(O)CC[C@]12C` [HYOUSTERONE D], the Activity entry in series [1] was “Not toxic”; in series [2], “Non-toxic”; in series [3], “Not toxic”; in series [4], “Not toxic”; in series [5] it was “Not toxic”.

For `C[C@H](CCCC(C)(C)O)[C@H]1CC[C@]2(O)C3=CC(=O)C4=C[C@H](O)[C@H](O)C[C@]4(C)[C@H]3CC[C@]12C` [HYOUSTERONE B], the Activity entry was “Not toxic” in series [1]; “Non-toxic” in series [2]; “Not toxic” in series [3]; “Not toxic” in series [4]; “Not toxic” in series [5].
